From patent US20130029962A1, “Substituted Heteroaromatic Pyrazole-Containing Carboxamide and Urea Compounds as Vanilloid Receptor Ligands” (Gruenenthal GmbH, priority 2011, published 2013)

These molecules were tested against T1, vanilloid receptor 1 (VR1/TRPV1 receptor) (Homo sapiens, UniProt Q8NER1) (assay: Functional testing on the vanilloid receptor 1 (VR1/TRPV1): FLIPR Ca2+ influx assay, displacement of capsaicin). Settings: 1 μM compound; capsaicin (Cap); human being; read-out: inhibition (as a percentage) at the concentration after @, Cap.
T1 construct: expressed in transfected cells; host or cells: CHO K1
Format: cell-based, human being
Design: key to mode of action at VR1/TRPV1 (AG, pAG, NE), Cap: AG=agonist; NE=no effect; pAG=partial agonist
Procedure, shortened: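 Fluo-4 FLIPR Ca2+ influx in CHO K1 cells transfected with human VR1, measuring displacement of 100 nM capsaicin; rat VR1 agonism/antagonism also assessed in rat dorsal root ganglion neurons cultured 2–3 days at 37° C with 25 ng/mL NGF, then loaded with 2 μM Fluo-4.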

T1 sequence (Q8NER1 whole entry): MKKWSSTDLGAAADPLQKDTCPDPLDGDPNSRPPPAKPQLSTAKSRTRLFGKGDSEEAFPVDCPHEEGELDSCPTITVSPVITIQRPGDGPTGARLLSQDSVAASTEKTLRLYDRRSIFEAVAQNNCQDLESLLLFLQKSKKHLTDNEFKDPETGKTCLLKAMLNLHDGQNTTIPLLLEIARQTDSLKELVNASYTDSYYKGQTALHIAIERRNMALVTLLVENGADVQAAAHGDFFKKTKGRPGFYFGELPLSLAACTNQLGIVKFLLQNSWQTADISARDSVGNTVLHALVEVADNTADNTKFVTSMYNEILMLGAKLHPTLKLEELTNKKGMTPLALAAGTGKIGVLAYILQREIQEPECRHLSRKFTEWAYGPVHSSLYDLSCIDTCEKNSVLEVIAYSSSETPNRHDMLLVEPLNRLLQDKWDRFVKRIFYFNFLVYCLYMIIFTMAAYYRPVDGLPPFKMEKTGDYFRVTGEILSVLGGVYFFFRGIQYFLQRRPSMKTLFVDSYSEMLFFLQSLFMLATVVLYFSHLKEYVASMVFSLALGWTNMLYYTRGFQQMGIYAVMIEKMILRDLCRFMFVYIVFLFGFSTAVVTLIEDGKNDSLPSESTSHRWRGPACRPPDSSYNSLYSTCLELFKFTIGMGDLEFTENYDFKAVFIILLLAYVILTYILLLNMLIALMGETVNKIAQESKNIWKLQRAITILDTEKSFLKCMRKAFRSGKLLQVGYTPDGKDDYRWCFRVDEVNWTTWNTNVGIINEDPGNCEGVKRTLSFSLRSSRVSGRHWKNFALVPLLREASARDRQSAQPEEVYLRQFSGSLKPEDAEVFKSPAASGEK

`CC(C)(C)c1cc(CNC(=O)Nc2ccc(CS(C)(=O)=O)nc2)n(-c2cccc(Cl)c2)n1` [Example 159, 1-((3-tert-butyl-1-(3-chlorophenyl)-1H-pyrazol-5-yl)methyl)-3-(6-(methylsulfonylmethyl)pyridin-3-yl)urea] gave an inhibition at 1 µM of 29%.

Same assay, conditions: 5 μM compound; capsaicin (Cap); human being; read-out: inhibition (as a percentage) at the concentration after @, Cap

First: COCCN(C)c1ccc(NC(=O)NCc2cc(C(F)(F)F)nn2-c2cccc(Cl)c2)cn1 [Example 89, 1-((1-(3-chlorophenyl)-3-(trifluoromethyl)-1H-pyrazol-5-yl)methyl)-3-(6-((2-methoxyethyl)(methyl)amino)pyridin-3-yl)urea]
Second: COCCOc1ccc(NC(=O)NCc2cc(C(C)(C)C)nn2-c2cccc(Cl)c2)cn1 [Example 131, 1-((3-tert-butyl-1-(3-chlorophenyl)-1H-pyrazol-5-yl)methyl)-3-(6-(2-methoxyethoxy)pyridin-3-yl)urea]
The inhibition at 5 µM of the first is lower: 31% for the first, 83% for the second.

Going from `CC(C)(C)c1cc(CNC(=O)Cc2ccncc2)n(-c2cccc(Cl)c2)n1` [Example 10, N-((3-tert-butyl-1-(3-chlorophenyl)-1H-pyrazol-5-yl)methyl)-2-(pyridin-4-yl)acetamide] to `Cc1nc(CO)ccc1NC(=O)NCc1cc(C(F)(F)F)nn1-c1cccc(Cl)c1` [Example 141, 1-((1-(3-chlorophenyl)-3-(trifluoromethyl)-1H-pyrazol-5-yl)methyl)-3-(6-(hydroxymethyl)-2-methylpyridin-3-yl)urea], the inhibition at 5 µM falls from 90% to 51%.

Same assay, conditions: capsaicin (Cap) as stimulus; Ki from IC50 by Cheng-Prusoff; read-out: (f) Ki (human being) [nM] Cap

Going from `Cc1cccc(-n2nc(C(F)(F)F)cc2CNC(=O)Nc2ccc(N3CC(O)C3)nc2)c1` [Example 114, 1-(6-(3-hydroxyazetidin-1-yl)pyridin-3-yl)-3-((1-m-tolyl-3-(trifluoromethyl)-1H-pyrazol-5-yl)methyl)urea] to `CC(C)c1cccc(-n2nc(C(F)(F)F)cc2CNC(=O)Nc2ccc(N3CC(O)C3)nc2)c1` [Example 115, 1-(6-(3-hydroxyazetidin-1-yl)pyridin-3-yl)-3-((1-(3-isopropylphenyl)-3-(trifluoromethyl)-1H-pyrazol-5-yl)methyl)urea], the Ki falls from 35 nM to 2 nM (18-fold). The second binds more tightly here.

`O=C(NCc1cc(C(F)(F)F)nn1-c1cccc(Cl)c1)Nc1ccc(N2CC[C@H](O)C2)nc1` [Example 125, (S)-1-((1-(3-chlorophenyl)-3-(trifluoromethyl)-1H-pyrazol-5-yl)methyl)-3-(6-(3-hydroxypyrrolidin-1-yl)pyridin-3-yl)urea] and `Cc1ccc(NC(=O)NCc2cc(C(F)(F)F)nn2-c2cccc(Cl)c2)cn1` [Example 136, 1-((1-(3-chlorophenyl)-3-(trifluoromethyl)-1H-pyrazol-5-yl)methyl)-3-(6-methylpyridin-3-yl)urea] are within 1.5-fold of each other in Ki: 64 nM for the first, 47 nM for the second.

Compared with `Cc1cccc(-n2nc(C(F)(F)F)cc2CNC(=O)Nc2ccc(NCCO)nc2)c1` [Example 81, 1-(6-(2-hydroxyethylamino)pyridin-3-yl)-3-((1-m-tolyl-3-(trifluoromethyl)-1H-pyrazol-5-yl)methyl)urea], `CC(C(=O)NCc1cc(C(F)(F)F)nn1-c1cccc(Cl)c1)c1ccc(NCCO)nc1` (stereo not drawn) [Example 146, N-((1-(3-chlorophenyl)-3-(trifluoromethyl)-1H-pyrazol-5-yl)methyl)-2-(6-(2-hydroxyethylamino)pyridin-3-yl)propanamide] is 20-fold lower in Ki: 12 nM for the first, 0.6 nM for the second.

First: CN(C)c1ncc(NC(=O)NCc2cc(C(C)(C)C)nn2-c2cccc(Cl)c2)cc1C(F)(F)F [Example 107, 1-((3-tert-butyl-1-(3-chlorophenyl)-1H-pyrazol-5-yl)methyl)-3-(6-(dimethylamino)-5-(trifluoromethyl)pyridin-3-yl)urea]
Second: CC(C)(C)c1cc(CNC(=O)Nc2cnc(CCS(C)(=O)=O)c(F)c2)n(-c2cccc(Cl)c2)n1 [Example 22, 1-((3-tert-butyl-1-(3-chlorophenyl)-1H-pyrazol-5-yl)methyl)-3-(5-fluoro-6-(2-(methylsulfonyl)ethyl)pyridin-3-yl)urea]
The Ki of the first is 5.6-fold lower: 5 nM for the first, 28 nM for the second. The first binds more tightly here.

Going from `O=C(NCc1cc(C(F)(F)F)nn1-c1cccc(Cl)c1)Nc1cncc(F)c1` [Example 18, 1-((1-(3-chlorophenyl)-3-(trifluoromethyl)-1H-pyrazol-5-yl)methyl)-3-(5-fluoropyridin-3-yl)urea] to `O=C(NCc1cc(C(F)(F)F)nn1-c1cccc(Cl)c1)Nc1cnc(CO)c(F)c1` [Example 50, 1-((1-(3-chlorophenyl)-3-(trifluoromethyl)-1H-pyrazol-5-yl)methyl)-3-(5-fluoro-6-(hydroxymethyl)pyridin-3-yl)urea], the Ki falls from 39 nM to 24 nM (1.6-fold).

First: CC(C(=O)NCc1cc(C(C)(C)C)nn1-c1cccc(Cl)c1)c1cnc(C(=O)Nc2ccccc2)nc1 (stereo not drawn) [Example 65, 5-(1-((3-tert-butyl-1-(3-chlorophenyl)-1H-pyrazol-5-yl)methylamino)-1-oxopropan-2-yl)-N-phenylpyrimidine-2-carboxamide]
Second: CC(C(=O)NCc1cc(C(C)(C)C)nn1-c1cccc(Cl)c1)c1ccc(NS(C)(=O)=O)nc1 (stereo not drawn) [Example 98, N-((3-tert-butyl-1-(3-chlorophenyl)-1H-pyrazol-5-yl)methyl)-2-(6-(methylsulfonamido)pyridin-3-yl)propanamide]
The Ki of the first is 8.8-fold higher: 70 nM for the first, 8 nM for the second.

`CS(=O)(=O)CCc1ccc(NC(=O)NCc2cc(C(F)(F)F)nn2-c2cccc(Cl)c2)cn1` [Example 21, 1-((1-(3-chlorophenyl)-3-(trifluoromethyl)-1H-pyrazol-5-yl)methyl)-3-(6-(2-(methylsulfonyl)ethyl)pyridin-3-yl)urea] and `CS(=O)(=O)CCc1ncc(NC(=O)NCc2cc(C(F)(F)F)nn2-c2cccc(Cl)c2)cc1F` [Example 23, 1-((1-(3-chlorophenyl)-3-(trifluoromethyl)-1H-pyrazol-5-yl)methyl)-3-(5-fluoro-6-(2-(methylsulfonyl)ethyl)pyridin-3-yl)urea] are within 1.5-fold of each other in Ki: 43 nM for the first, 29 nM for the second.

Compared with `CC(C)(C)c1cc(CNC(=O)Nc2ccc(N3CCC3)nc2)n(-c2cccc(Cl)c2)n1` [Example 108, 1-(6-(azetidin-1-yl)pyridin-3-yl)-3-((3-tert-butyl-1-(3-chlorophenyl)-1H-pyrazol-5-yl)methyl)urea], `O=C(NCc1cc(C(F)(F)F)nn1-c1cccc(Cl)c1)Nc1ccc(C(O)CO)nc1` (stereo not drawn) [Example 145, 1-((1-(3-chlorophenyl)-3-(trifluoromethyl)-1H-pyrazol-5-yl)methyl)-3-(6-(1,2-dihydroxyethyl)pyridin-3-yl)urea] is 2.8-fold higher in Ki: 43 nM for the first, 121 nM for the second. The first binds more tightly here.

Going from `O=C(Cc1ccc(Cl)nc1)NCc1cc(C(F)(F)F)nn1-c1cccc(Cl)c1` [Example 17, N-((1-(3-chlorophenyl)-3-(trifluoromethyl)-1H-pyrazol-5-yl)methyl)-2-(6-chloropyridin-3-yl)acetamide] to `CC(C(=O)NCc1cc(C(F)(F)F)nn1-c1cccc(Cl)c1)c1ccc(NC(=O)c2ccc(Cl)cc2)nc1` (stereo not drawn) [Example 96, 4-chloro-N-(5-(1-((1-(3-chlorophenyl)-3-(trifluoromethyl)-1H-pyrazol-5-yl)methylamino)-1-oxopropan-2-yl)pyridin-2-yl)benzamide], the Ki falls from 29 nM to 3 nM (9.7-fold).

With `COc1cc(C(C)C(=O)NCc2cc(C(C)(C)C)nn2-c2cccc(Cl)c2)cnc1NS(C)(=O)=O` (stereo not drawn) [Example 105, N-((3-tert-butyl-1-(3-chlorophenyl)-1H-pyrazol-5-yl)methyl)-2-(5-methoxy-6-(methylsulfonamido)pyridin-3-yl)propanamide] the Ki was 2 nM.

Same assay, conditions: capsaicin (Cap); human being

With `CC(C)(C)c1cc(CNC(=O)Cc2ccncc2)n(-c2cccc(Cl)c2)n1` [Example 10, N-((3-tert-butyl-1-(3-chlorophenyl)-1H-pyrazol-5-yl)methyl)-2-(pyridin-4-yl)acetamide] the “mode of action at VR1/TRPV1 (AG, pAG, NE), Cap” value (shortened to “mode of action at VR1/TRPV1”) was “AG”.
In the case of `COc1ccc(-n2nc(C(F)(F)F)cc2CNC(=O)Nc2ccc(CO)nc2)cc1F` [Example 35, 1-((1-(3-fluoro-4-methoxyphenyl)-3-(trifluoromethyl)-1H-pyrazol-5-yl)methyl)-3-(6-(hydroxymethyl)pyridin-3-yl)urea], the “mode of action at VR1/TRPV1” value is reported as “NE”.
In the case of `COCCOc1ccc(NC(=O)NCc2cc(C(C)(C)C)nn2-c2cccc(Cl)c2)cn1` [Example 131, 1-((3-tert-butyl-1-(3-chlorophenyl)-1H-pyrazol-5-yl)methyl)-3-(6-(2-methoxyethoxy)pyridin-3-yl)urea], the “mode of action at VR1/TRPV1” value is reported as “AG”.
